Drawing on patent US20250333371A1, “COMPOUNDS” (PSYLO PTY LTD, priority 2022, published 2025), this text covers EC50 and Emax for one molecule.

Structures are written as SMILES.

The test concerns the target T1, 5-HT2B (Homo sapiens, UniProt P41595).
T1 construct: host or cells: CHO-K1
Nature of the test: FLIPR Ca2+ flux functional assay, 5-HT2B receptor (stably transfected CHO-K1). The class given is cell-based. As for the experimental part:
Activity at 5-HT2A, 5-HT2B and 5-HT2C receptors was determined using a FLIPR Ca^2+ flux assay at WuXi AppTec Co. Ltd. (Hong Kong) Discovery Biology Unit according to their standard protocols. Briefly, stably transfected cells expressing the receptor of interest (HEK293 for 5-HT2A and 5-HT2C; CHO-K1 for 5-HT2B) were grown and plated in a 384 well plate and incubated at 37° C. and 5% CO2 overnight. A 250 mM stock solution of probenecid in FLIPR calcium assay buffer (10 mL) was freshly prepared and combined with a fluorescent dye (Fluo-4 Direct) to give a final assay concentration of 2.5 mM. Reference compounds were 4-fold serially diluted and the screening compounds were 3-fold serially diluted in 100% DMSO for 10 points using Agilent Bravo, and 750 nL was added to a 384 well compound plate using Echo along with 30 μL assay buffer. The fluorescent dye was then added to the assay plate along with assay buffer to a final volume of 40 μL. The cell plate was incubated for 50 min at 37° C. and 5% CO2 and placed into the FLIPR Tetra along with the compound plate. 10 μL of references and compounds were then transferred from the compound plate into the cell plate and the fluorescent signal was read.

T1 sequence (P41595 whole entry): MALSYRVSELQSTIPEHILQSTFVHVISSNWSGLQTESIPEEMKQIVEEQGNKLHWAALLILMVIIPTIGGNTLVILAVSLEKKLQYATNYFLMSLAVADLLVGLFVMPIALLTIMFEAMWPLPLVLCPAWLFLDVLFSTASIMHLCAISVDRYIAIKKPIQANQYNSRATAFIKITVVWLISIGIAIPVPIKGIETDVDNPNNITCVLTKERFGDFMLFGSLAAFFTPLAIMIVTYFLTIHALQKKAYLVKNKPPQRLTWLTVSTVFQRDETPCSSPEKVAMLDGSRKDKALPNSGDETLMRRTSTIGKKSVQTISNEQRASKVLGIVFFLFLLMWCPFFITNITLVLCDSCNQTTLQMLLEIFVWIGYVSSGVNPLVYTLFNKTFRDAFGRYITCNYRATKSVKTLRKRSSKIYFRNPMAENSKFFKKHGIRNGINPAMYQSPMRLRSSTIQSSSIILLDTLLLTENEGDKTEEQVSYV

`COc1ccc2cccc(CCN(C)C(C)C)c2c1` [Example I-7, N-(2-(7-methoxynaphthalen-1-yl)ethyl)-N-methylpropan-2-amine]: the EC50 is over 10 µM. The molecule further gave an Emax (agonist activity, Ca2+ flux, CHO-K1) of 36%.
